From patent US20110263647A1 (AMGEN INC., priority 2009, published 2011)
Like-named read-outs stand apart in the source and are kept apart here.

Legend:
CYP2D6 = target: T1, CYP2D6 (Homo sapiens, UniProt P10635); assay: CYP2D6 inhibition assay (bufuralol, pooled human liver microsomes); format: in vitro ADME; conditions: pH 7.4, probe bufuralol (5 μM), test compound 3 μM, human liver microsomes 0.25 mg/mL
T1 construct: tissue XenoTech LLC Lot 0610351; host or cells: pooled human liver microsomes
Description: (§1) Midazolam was obtained from BD Gentest (Waltham, Mass.); 1′ hydroxy midazolam and 1-hydroxy bufuralol maleate were obtained from Ultrafine Chemicals (Manchester, UK); bufuralol HCl, ketoconazole, quinidine, potassium phosphate, and NADPH were obtained from Sigma (St. Louis, Mo.). Test compounds were prepared at 10 mM concentration in DMSO (Mallinckrodt Inc., St. Louis, Mo.). NADPH was prepared at 10 mM concentration in a pH 7.4 buffer (8.3 mg/mL 66.7 mM potassium phosphate). Midazolam was prepared at 1 mM concentration in deionized water (Amgen, Thousand Oaks, Calif.), and bufuralol was prepared at 2 mM concentration in deionized water. A stock solution of ketoconazole was prepared at 37 mM concentration in DMSO, and quinidine was prepared at 500 uM concentration in DMSO. Formic acid in acetonitrile (0.05%, ACN) was used as a quench solution (Sigma-Aldrich, St. Louis, Mo.). All solvents used for LC/MS were of chromatographic grade. Pooled human liver microsomes (Lot 0610351) were purchased from XenoTech LLC, (Lenexa, Kans.).
Pooled human liver microsomes (0.25 mg/mL) were incubated at 37° C. in a phosphate buffer (66.7 mM potassium phosphate at pH 7.4) with the selective CYP2D6 substrate bufuralol at a concentration of 5 μM in the presence and absence of test compound (3 μM). The reaction was started with the addition of NADPH (1 mM final concentration). The reaction was stopped after 10 minutes by addition of formic acid in acetonitrile. 1-Hydroxybufuralol metabolite formation was measured by an HPLC MS detection method (mobile phases for HPLC were: 0.1% AcOH in 5% MeOH, and 0.1% AcOH in 95% MeOH; the HPLC column was an Onyx Monolithic C18 CHO-7645 HPLC column from Phenomenex; Shimadzu LC-10ADVP equipped Biomek FX Liquid handling system and CTC Analytics PAL well auto-sampler; Mass spectrometer: Applied Biosystems API 3000 using Analyst 1.4.1 software). Inhibition was determined by the ratio of the amount of 1-hydroxy bufuralol metabolite formed metabolite in the presence of test compound to the amount of metabolite in the absence of test compound.

[1] = In vivo pharmacokinetics, IV and oral gavage; set-up: species or system male Sprague-Dawley rats; conditions: rat; for FPO: Table 5; for Fpo (%): Table 6; for clearance / AUC(0-t) / Cmax / Vd: male, Sprague-Dawley, plasma; for Vd: read-out: Vss
Description: In vivo pharmacokinetic parameters were determined by measuring systemic plasma exposure in male Sprague-Dawley rats (Charles River Laboratories or Taconic, Oxnard, Calif.) by intravenous administration (N=3 fed rats: 2 mg/kg tail vein injection in DMSO) and oral gavage (N=3 fasted rats: 5 mg/kg in 1% Tween 80-2% HPMC-97% deionized water-pH 2.0 vehicle) (Comparative Example 18′ was only dosed IV and at 0.5 mg/kg). DMSO was obtained from Mallinckrodt Inc.; Tween 80 was obtained from Croda; HPMC is Methocel E50 Premium LV, obtained from Dow Excipients. Following oral administration, blood was drawn (250 μL) at 0.25, 0.5, 1, 2, 4, 6, 8, 12, and 16 hours. Following iv administration, blood was drawn (250 μL) at 0.083, 0.25, 0.5, 1, 2, 4, 6, 8, and 16 hours. Blood samples were drawn using a Culex® In Vivo Sampling System (BASi) and collected in BD Microtainer® tubes containing Lithium Heparin (BD). Plasma was obtained by centrifugation of blood at 14000 g and 2-8° C. for five minutes using an Eppendorf 5417R Centrifuge System. Plasma samples were mixed with 2× volume of acetonitrile (Sigma-Aldrich, St. Louis, Mo.). The mixture was stirred briefly using a vortex mixer and then centrifuged at 2867 g for 5 minutes in a Beckman Coulter Allegra 25R equipped with a Type S5700 rotor. The supernatant was removed and diluted 2× with mobile phase A (5/94.9/0.1 v/v/v MeOH/water/AcOH). Plasma concentrations were determined using liquid chromatography/tandem mass spectrometry, with electrospray ionization (ESI) and multiple reaction monitoring in the positive ion mode (Sciex API 3000 mass spectrometer connected to a Shimadzu LC-20AD pump and a LEAP PAL autosampler. Typical conditions used for HPLC were: mobile phase A=5/94.9/0.1 v/v/v MeOH/water/AcOH and mobile phase B=95/4.9/0.1 v/v/v MeOH/water/AcOH; HPLC column was a Varian MonoChrom C18.3μ for 2×30 mm and 51.1 for 2×50 mm) Instrument response was calibrated by a standard curve over 0.1-2000 ng/mL concentration range, and the lower limit of quantitation was 0.1-2.5 ng/mL. Peak areas were integrated on a Windows 2000 computer using the Sciex program Analyst® (Version 1.4.1). Following peak area integration, the data were exported to the software package (Watson® Non-GLP PROD (Version 7.0.0.01, Thermo Electron Corp., Waltham, Mass.)), where concentrations were determined by a weighted linear regression of peak area versus the nominal concentrations of the calibration standards. Calculations were performed on unrounded numbers. The Watson® Non-GLP PROD software was used to determine precision and accuracy for the calibration standards. Noncompartmental analysis of plasma concentration data was used to generate PK parameters such as clearance (CL, L/h/kg), volume of distribution (Vss, L/kg), area under the curve (AUC, ng·h/mL) and secondary parameters such as half-life (t1/2, h) and oral bioavailability (% F, %). This was done using WinNonlin Enterprise software (Version 5.1.1, from Pharsight Corp., Mountain View, Calif.). References for pharmacokinetic analysis include: Gabrielsson and Weiner (1997) Pharmacokinetic and Pharmacodynamic Data Analysis Concepts and Applications, 2nd ed., Swedish Pharmaceutical Press, Stockholm; Gibaldi and Perrier (1982) Pharmacokinetics, 2nd ed., Marcel Dekker, New York. Rowland and Tozer (1995) Clinical Pharmacokinetics: Concepts and Applications, 3rd ed., Lippincott Williams & Wilkins, Philadelphia.

CYP3A4 = target: T2, CYP3A4 (Homo sapiens, UniProt P08684); assay: CYP3A4 inhibition assay (midazolam, pooled human liver microsomes); format: in vitro ADME; conditions: pH 7.4, probe midazolam (2.5 μM), test compound 3 μM, human liver microsomes 0.1 mg/mL
T2 construct: tissue XenoTech LLC Lot 0610351; host or cells: pooled human liver microsomes
Description: as §1
Pooled human liver microsomes (0.1 mg/mL) were incubated at 37° C. in a phosphate buffer (66.7 mM potassium phosphate at pH 7.4) with the selective CYP3A substrate midazolam at a concentration of 2.5 μM in the presence and absence of test compound (3 μM). The reaction was started with the addition of NADPH (1 mM final concentration). The reaction was stopped after 10 minutes by addition of formic acid in acetonitrile. 1′-Hydroxymidazolam metabolite formation was measured by an HPLC MS detection method (mobile phases were 0.1% AcOH in 5% MeOH, and 0.1% AcOH in 95% MeOH; the HPLC column was an Onyx Monolithic C18 CHO-7645 HPLC column obtained from Phenomenex; Shimadzu LC-10ADVP equipped Biomek FX Liquid handling system and CTC Analytics PAL well auto-sampler; Mass spectrometer: Applied Biosystems API 3000 using Analyst 1.4.1 software). Inhibition was determined by the ratio of the amount of 1′-hydroxy midazolam metabolite formed in the presence of test compound to the amount of metabolite found in the absence of test compound Inhibition was measured relative to the rate of formation of 1′-hydroxy midazolam incubated at 2.5 μM without test compound.

[2] = IV 2 mg/kg, read-out: IV AUClast
[3] = PO 5 mg/kg, read-out: Oral AUClast
[4] = PO 5 mg/kg, read-out: Oral Cmax

T1 sequence (P10635 whole entry): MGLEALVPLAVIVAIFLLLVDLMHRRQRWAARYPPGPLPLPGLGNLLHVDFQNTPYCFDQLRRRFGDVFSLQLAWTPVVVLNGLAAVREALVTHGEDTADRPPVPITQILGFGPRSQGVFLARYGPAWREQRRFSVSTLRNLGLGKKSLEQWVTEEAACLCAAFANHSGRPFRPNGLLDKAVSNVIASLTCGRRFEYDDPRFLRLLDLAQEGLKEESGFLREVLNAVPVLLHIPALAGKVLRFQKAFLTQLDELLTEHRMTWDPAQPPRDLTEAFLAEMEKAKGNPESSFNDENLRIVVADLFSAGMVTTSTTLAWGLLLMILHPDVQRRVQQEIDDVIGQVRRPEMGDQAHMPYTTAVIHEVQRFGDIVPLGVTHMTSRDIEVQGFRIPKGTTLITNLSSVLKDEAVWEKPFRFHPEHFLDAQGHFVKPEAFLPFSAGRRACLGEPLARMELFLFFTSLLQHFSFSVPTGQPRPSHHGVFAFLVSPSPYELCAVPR
T2 sequence (P08684 whole entry): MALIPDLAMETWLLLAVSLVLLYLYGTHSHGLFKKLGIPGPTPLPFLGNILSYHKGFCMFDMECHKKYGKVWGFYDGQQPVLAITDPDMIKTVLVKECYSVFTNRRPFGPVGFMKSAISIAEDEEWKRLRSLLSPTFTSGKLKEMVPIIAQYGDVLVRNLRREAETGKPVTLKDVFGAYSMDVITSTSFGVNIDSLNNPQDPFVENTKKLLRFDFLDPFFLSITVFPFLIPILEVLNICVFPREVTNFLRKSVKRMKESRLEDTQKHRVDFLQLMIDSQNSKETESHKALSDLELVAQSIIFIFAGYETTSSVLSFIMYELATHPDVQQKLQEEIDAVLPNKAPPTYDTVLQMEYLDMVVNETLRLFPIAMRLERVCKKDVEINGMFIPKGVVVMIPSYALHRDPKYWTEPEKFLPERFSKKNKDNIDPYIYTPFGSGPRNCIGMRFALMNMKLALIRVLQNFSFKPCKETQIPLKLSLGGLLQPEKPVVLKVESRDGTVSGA

| Structure (SMILES) | inhibition at 10 min, 3 μM (CYP2D6) [%] | FPO ([1]; PO 5 mg/kg, IV 2 mg/kg) [%] | Fpo (%) ([1]; PO 5 mg/kg, IV 2 mg/kg) | clearance ([1]; IV 2 mg/kg) [mL/min/kg] | AUC(0-t) [1, 2] [ng·h/mL] | Cmax ([1]; IV 2 mg/kg, read-out: IV Cmax) [ng/mL] | Vd ([1]; IV 2 mg/kg) [L/kg] | AUC(0-t) [1, 3] [ng·h/mL] | Cmax [1, 4] [ng/mL] | inhibition at 10 min, 3 μM (CYP3A4) [%] |
| --- | --- | --- | --- | --- | --- | --- | --- | --- | --- | --- |
| N[C@H](CNc1ncc(-c2ccc3cnccc3c2)s1)Cc1ccc(C(F)(F)F)nc1 [2′, reference compound] | 94 | 5 | 5 | 37.4 | 870 | 1260 | 2.32 | 117 | 29 | 100 |
| N[C@H](CNc1ncc(-c2ccc3cnccc3c2)s1)Cc1ccc(C(F)(F)F)cc1 [4′, reference compound] | 78 | 27 | 20 | 50.9 | 651 | 422 | 6.17 | 432 | 86 | 87 |
| CC(F)(F)c1ccc(C[C@H](N)CNc2ncc(-c3ccc4cnccc4c3)s2)cn1 [7′, reference compound] | 79 | 4 | 3 | 97.9 | 336 | 490 | 4.55 | 30 | 8 | 86 |
| C[C@@H](c1ccc(C(F)(F)F)cc1)[C@H](N)CNc1ncc(-c2ccc3cnccc3c2)s1 [10′, reference compound] | 86 | 12 | 25 | 19.1 | 1680 | 730 | 9.46 | 487 | 73 | 94 |
| COCc1nc(NC[C@@H](N)Cc2ccc(C(F)(F)F)cc2)sc1-c1ccc2cnccc2c1 [24′, reference compound] | 94 | 14 | 19 | 90.1 | 369 | 465 | 10.2 | 129 | 51 | 100 |
| N[C@H](CNc1ncc(-c2ccc3cnccc3c2)s1)[C@@H](CO)c1ccc(C(F)(F)F)cc1 [33′, reference compound] | 88 | 12 | 10 | 47.5 | 691 | 797 | 4.18 | 199 | 23 | 91 |
| N[C@H](CCc1ncc(-c2ccc3cnccc3c2)s1)[C@@H](O)c1ccc(C(F)(F)F)cc1 [36′, reference compound] | 86 | 20 | 19 | 150 | 221 | 347 | 13.2 | 113 | 27 | 72 |
| CC(F)(F)c1ccc([C@H](O)[C@H](N)CNc2ncc(-c3ccc4cnccc4c3)s2)cc1 [38′, reference compound] | 88 | 4 | 4 | 108 | 299 | 412 | 6.67 | 30 | 13 | 86 |
| N[C@H](CNc1ncc(-c2ccc3cnccc3c2)s1)Cc1ccc(Cl)c(F)c1 [44′, reference compound] | 75 | 51 | 45 | 41.5 | 787 | 816 | 0.766 | 1000 | 138 | 94 |
